For series [1] the following is noted: cited from earlier work.
Series [2] can be described thus: Dose-response to otenzepad in a mouse model of diarrhea (fecal pellet count). The series is classed as in vivo, Male Swiss mice. The note with it: increasing doses of otenzepad, T0 to T+4 h. The source says: Male Swiss mice (4-6 weeks old), N=10 per treatment group were used, and treated with either vehicle (vehicle group) or increasing doses of otenzepad, a representative M2-antagonist. Mice were randomly assigned to one of two experimental groups (vehicle; or increasing doses of otenzepad). Each animal was identified by its group name, cage number, series (day) of experiment, and number (1 to 10) written with permanent ink on the tail. Mice were placed individually in cages without any bedding materials. During the experiment the number of fecal pellets was counted at different time-points, starting one hour before the time of the administration of the test compound (T0), as outlined below:
(§1) T−1 h to T0: counting of the accumulated fecal pellets excreted.
T0: administration of the test compound.
T0 to T+2 h: counting of the accumulated fecal pellets excreted.
T+2 h to T+4 h: counting of the accumulated fecal pellets excreted.
The total number of fecal pellets for each mouse was counted over time. An analysis of variance (ANOVA) was performed on the results. Fisher's Protected Least Significant Difference was used for pairwise comparisons; p values≤0.05 were considered significant. Grubbs' test (http://www.graphpad.com/quickcalcs/Grubbsl.cfm) was used to detect outliers for each parameter in each experimental group.

A short description of series [3]: T-maze continuous alternation task (T-CAT) with solifenacin and otenzepad. The class given is in vivo, Male Swiss mice. The source says:
Evaluation of Cognition with Solifenacin and Otenzepad in the T-Maze Alternation Task in Mice The T-maze continuous alternation task (T-CAT) is useful as model for studying compounds with cognitive enhancing properties. The T-maze consists of 2 choice arms and 1 start arm mounted to a square centre. Manual doors are provided to close specific arms during the force choice alternation task. Male Swiss mice (4-6 weeks old), N=10 per treatment group were used, and were pre-treated with: • Solifenacin at the dose that blocked fecal pellet excretion in Experiment 2 of Example 1. […] Mice were randomly assigned to one of the different experimental treatment groups. Each animal was identified by its group name, cage number, series (day) of experiment, and number (1 to 10) written with permanent ink on the tail. The T-maze apparatus is made of gray Plexiglas with a main stem (55 cm long×10 cm wide×20 cm high) and two arms (30 cm long×10 cm wide×20 cm high) positioned at 90 degree angle relative to the main stem. […] The percentage of alternation over the 14 free-choice trials was determined for each mouse and was used as an index of working memory performance. […] The drug-induced improvement of memory was calculated by setting the respective response of the saline/vehicle as 100% and that of the test group as 0% reversion. […]

For series [4] the following is noted: cited from earlier work. This is another data set of the same source.
The conditions of series [5]: aged memory impaired rats; cited from earlier work.
The conditions of series [6]: young animals; cited from earlier work.
The conditions of series [7]: traumatic brain-injured rats; cited from earlier work.
For series [8] the following is noted: transdermal, rats, [14C] label; cited from earlier work.
Series [9] can be described thus: Antagonism of otenzepad-induced diarrhea in mice by solifenacin. The note with it: solifenacin 2 to 40 mg/kg given 30 min before otenzepad. The class given is in vivo, Male Swiss mice. The protocol: Male Swiss mice (4-6 weeks old), N=10 per treatment group were used. Animals were pretreated with solifenacin (a representative peripheral muscarinic receptor antagonist) or vehicle; 30 minutes later animals were treated with otenzepad at a dose that caused diarrhea (as determined in Experiment 1). The dose of solifenacin ordinarily ranged from 2 to 40 mg/kg. Mice were placed individually in cages without any bedding materials. During the experiment the number of fecal pellets was counted at different time-points as outlined below:
as §1
T0: administration of solifenacin.
T30 min: administration of vehicle or otenzepad.
T 30 min to T 2.5 h: counting of accumulated fecal pellets excreted.
T+2.5 h to T+4.5 h: counting of accumulated fecal pellets excreted.
The total number of fecal pellets for each mouse was counted over time. An analysis of variance (ANOVA) was performed on the results. Fisher's Protected Least Significant Difference was used for pairwise comparisons. The p value≤0.05 were considered significant. Grubbs' test (http//www at graphpad.com/quickcalcs/Grubbs.cfm) was used to detect outliers for each parameter in each experimental group.

For series [10] the following is noted: bilateral intrastriatal infusion, female rats; cited from earlier work.
The conditions of series [11]: in vivo; cited from earlier work.
For series [12] the following is noted: in vivo; cited from earlier work. This is another data set of the same source.
The conditions of series [13]: clinical study; cited from earlier work.
For series [14] the following is noted: cited from earlier work. This is another data set of the same source.
For series [15] the following is noted: absorbed amount; cited from earlier work.

We go through ten compounds from patent US20180360845A1, “MUSCARINIC COMBINATION OF A SELECTIVE M2-ANTAGONIST AND A PERIPHERAL NON-SELECTIVE ANTAGONIST FOR TREATING HYPOCHOLINERGIC DISORDERS” (CHASE PHARMACEUTICALS CORPORATION, priority 2015, published 2018).

With `COc1ccc([S+]([O-])c2ccc(C(C#N)N3CCN(C4CCCCC4)CC3)cc2)cc1` (stereo not drawn) [SCH 57790, 4-cyclohexyl-alpha-[4[[4-methoxyphenyl]sulphinyl]-phenyl]-1-piperazineacetonitrile], the brain acetylcholine release result in [1] (in vivo) is on record as “dose-related increase”. In addition, the cognitive performance entry in series [1] (rodents and nonhuman primates) was “enhances cognitive performance”.

Take `CCN(CC)CC1CCCCN1CC(=O)N1c2ccccc2C(=O)Nc2cccnc21` (racemic) [otenzepad, (±)11-[[2-[(diethylamino)methyl]-1-piperidinyl]acetyl]-5,11-dihydro-6H-pyrido[2,3-b][1,4]benzodiazepin-6-one]: the “diarrhea (number of fecal pellets)” value in series [2] is “dose-dependently causes diarrhea”. In addition, in series [3] (two doses of otenzepad, in the presence of solifenacin), the “cognition (percentage of alternation, working memory)” value is recorded as “improves cognition in a dose-dependent manner”. In addition, the “subjects with mild and tolerable adverse events (palpitations, dry mouth, headache)” value in series [4] (270 to 810 mg/day) was “about 20%”. In addition, the muscarinic adverse effects entry in series [4] (single oral doses of 120, 240 and 480 mg) is recorded as “does not induce manifest muscarinic adverse effects”.

As to `CCCC(C)(C)C(=O)N(CC)CCCC1CCN(CC(=O)N2c3ccc(Cl)cc3C(=O)Nc3cccnc32)CC1` [BIBN-99, 5,11-dihydro-8-chloro-11-[[4-[3-[(2,2-dimethyl-1-oxopentyl)ethylamino]propyl]-1-piperidinyl]acetyl]-6H-pyrido[2,3-b][1,4]benzodiazepin-6-one], the “impaired ACh release and cognitive deficits” value in [5] is recorded as “reverses, in a dose-dependent manner”. The scopolamine-induced amnesia entry in [6] is listed as “improves scopolamine-induced amnesia”. Also, the cognitive deficits result in series [7] is on record as “attenuate cognitive deficits”.

For `CCN(CC)CC#CCOC(=O)C(O)(c1ccccc1)C1CCCCC1` (centres unmarked) [oxybutynin, 4-diethylaminobut-2-ynyl 2-cyclohexyl-2-hydroxy-2-phenylethanoate], the brain penetration result in series [8] is on record as “presence of radiolabel in the brain”.

Consider `O=C(O[C@H]1CN2CCC1CC2)N1CCc2ccccc2[C@@H]1c1ccccc1` [solifenacin, (1S)-(3R)-1-azabicyclo[2.2.2]oct-3-yl 3,4-dihydro-1-phenyl-2(1H)-iso-quinolinecarboxylate], for which the “antagonism of otenzepad-induced diarrhea (fecal pellets)” value in series [9] was “dose-dependently antagonized the diarrhea”. Further, the “effect of solifenacin on cognitive response to otenzepad (percentage of alternation)” value in series [3] (solifenacin pre-treatment 30 min before otenzepad) is listed as “did not affect cognitive response to otenzepad”.

`COc1ccccc1CNCCCCCCNCCCCCCCCNCCCCCCNCc1ccccc1OC` [methoctramine, N,N′-bis[6-[(2-methoxybenzyl)amino]hexyl]-1,8-octanediamine]: the procedural memory performance result in series [10] is recorded as “improves procedural memory performance”.

On to `CCCS(=O)(=O)N1CCC(C)(N2CCN([C@@H](C)c3ccc(S(=O)(=O)c4ccc5c(c4)OCO5)cc3)[C@H](C)C2)CC1` [SCH 72788, 4-[4-[1(S)-[4-[(1,3-benzodioxol-5-yl)sulfonyl]phenyl]ethyl]-3(R)-methyl-1-piperazinyl]-4-methyl-1-(propylsulfonyl)piperidine], for which, in series [11], the ACh release result is given as “increases ACh release” and the “activity in a rodent model of cognition” value is “active”.

Consider `Cc1cccc(C(=O)N2CCC(N3CCC(C4(c5ccc(S(=O)(=O)c6cccc(Cl)c6)cc5)OCCO4)CC3)CC2)c1N` [SCH-217443, 1′-(2-amino-3-methylbenzoyl)-4-[[[(3-chlorophenyl)sulfonyl]phenyl]ethylenedioxymethyl]-1,4′-bipiperidine], for which, in series [12], the “activity in a rat model of cognition” value is “shows activity”.

On to `CCn1nnc(C2=CCCN(C)C2)n1` [Lu 25-109, 5-(2-ethyl-2H-tetrazol-5-yl)-1-methyl-1,2,3,6-tetrahydropyridine], for which, in [13], the “fixed-dose Maximum Tolerated Dose” value was 150 mg t.i.d. In [14] (anorexia, nausea, diarrhea, increased sweating, increased with dose), the side effects result was “prominent cholinergic side effects”. For the same compound, the “primary and secondary variables versus placebo (antidementia efficacy)” value in series [14] (three doses, 6 months, 496 patients with probable AD) is reported as “no significant differences”.

On to `O=C(O[C@H]1C[C@H]2CC[C@@H](C1)[N+]21CCCC1)C(O)(c1ccccc1)c1ccccc1` [trospium chloride, azoniaspiro[33-benziloyloxy-(1α,5α)-nortropane-8,1′-pyrrolidine] (trospium) chloride], for which the average plasma half-life entry in series [15] is “about 18 hours”.
